Assay results reported in US20220323761A1, “METHOD FOR INDUCING HIBERNATION-LIKE STATE AND DEVICE SAME” (University of Tsukuba, priority 2019, published 2022).

Experiments:
adenosine A1 receptor = target: T1, adenosine A1 receptor (Mus musculus, UniProt Q60612); experiment: Metabolic state induced by IP CHA in wild-type mice; type: in vivo
T1 construct: endogenous in cells; host or cells: whole mouse, in vivo (intraperitoneal CHA)
T1 sequence (Q60612 1-326): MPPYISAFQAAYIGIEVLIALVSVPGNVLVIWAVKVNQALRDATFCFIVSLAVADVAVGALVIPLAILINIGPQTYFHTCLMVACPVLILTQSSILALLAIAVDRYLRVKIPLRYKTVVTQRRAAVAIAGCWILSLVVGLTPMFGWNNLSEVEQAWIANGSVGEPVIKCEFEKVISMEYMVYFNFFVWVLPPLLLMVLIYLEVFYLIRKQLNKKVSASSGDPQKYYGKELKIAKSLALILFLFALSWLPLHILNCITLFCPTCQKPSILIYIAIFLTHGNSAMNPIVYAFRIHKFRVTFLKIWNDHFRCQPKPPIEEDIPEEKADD
Description: In order to record the core body temperature, oxygen consumption amount, EEG, ECG, and respiratory patterns, each animal was housed in a temperature controlled chamber (HC-100, Shin Factory or LP-400P-AR, Nippon Medical & Chemical Instruments Co., Ltd.). In order to continuously record the TB (intraperitoneal temperature), a telemetry temperature sensor (TA11TA-F10, DSI) was implanted into the animal's abdominal cavity under general inhalation anesthesia at least 7 days prior to the recording. The VO 2 and carbon dioxide discharge rate (VCO2) of the animal were continuously recorded using a respiratory gas analyzer (ARCO-2000 mass spectrometer, ARCO System). The respiratory quotient was calculated from the ratio of VCO2/VO2.
The Dreadd agonist CNO (clozapine N-oxide, Abcam, ab141704) was dissolved in physiological saline at a dose of 100 μg/mL, and the solution was frozen at −20° C. The CNO solution was thawed on site and then administered to each mouse intraperitoneally at a dose of 1 mg/kg. The adenosineAl receptor agonist CHA (N^6-cyclohexyl adenosine, Sigma-Aldrich, C9901) was dissolved in physiological saline at a concentration of 250 μg/mL, and the solution was administered intraperitoneally to each mouse at a dose of 2.5 mg/kg.

[1] = administered centrally; cited from earlier work

Molecule | induction of hypothermic/hypometabolic state (adenosine A1 receptor; IP 2.5 mg/kg, wild-type mice) | reaction to low TA through behavior (posture and shivering) or increase in VO2 (adenosine A1 receptor; TA 12° C., IP 2.5 mg/kg) | TB and VO2 at lowered TA (adenosine A1 receptor; TA set to 12° C.) | TB compared with QIH (adenosine A1 receptor; at 20°) | heart rate and blood pressure [1] | sympathetic nerve outflow [1]
OC[C@H]1O[C@@H](n2cnc3c(NC4CCCCC4)ncnc32)[C@H](O)[C@@H]1O [CHA, N^6-cyclohexyl adenosine] | effectively induced a hypothermic/hypometabolic state | did not react | further reduced | tends to be higher | – | –
pyroglutamylated RFamide peptide (QDEGSEATGFLPAAGEKTSGPLGNLAEELNGYSRKKGGFSFRF; QRF-amide; UniProt P83859 91-133, looked up) [Qrfp, hypothalamic neuropeptide, endogenous ligand of the orphan G-protein-coupled receptor hGPR103] | – | – | – | – | increase | increases
